# Results from ChEMBL document CHEMBL1156380, “Inhibition of Mycobacterium tuberculosis growth by saringosterol from Lessonia nigrescens” (J Nat Prod, 2001).
# The source made the active and inactive calls. The rule behind the calls is not given here.
# System: Mycobacterium tuberculosis
# Experiment: Antitubercular activity against Mycobacterium tuberculosis H37Rv ATCC 27294 by BACTEC 460 radiometric assay
# Type: functional
# Conditions: not given
row,Structure (SMILES),MIC
1,C=C[C@](O)(CC[C@@H](C)[C@H]1CC[C@H]2[C@@H]3CC=C4C[C@@H](O)CC[C@]4(C)[C@H]3CC[C@]12C)C(C)C,1 µg/mL
2,C=C[C@@](O)(CC[C@@H](C)[C@H]1CC[C@H]2[C@@H]3CC=C4C[C@@H](O)CC[C@]4(C)[C@H]3CC[C@]12C)C(C)C,0.125 µg/mL
3,C/C=C(\CC[C@@H](C)[C@H]1CC[C@H]2[C@@H]3CC=C4C[C@@H](O)CC[C@]4(C)[C@H]3CC[C@]12C)C(C)C,inactive
4,CO[C@H]1/C=C/O[C@@]2(C)Oc3c(C)c(O)c4c(O)c(c(/C=N/N5CCN(C)CC5)c(O)c4c3C2=O)NC(=O)/C(C)=C\C=C\[C@H](C)[C@H](O)[C@@H](C)[C@@H](O)[C@@H](C)[C@H](OC(C)=O)[C@@H]1C [RIFAMPIN],0.25 µg/mL
5,C=CC(O)(CC[C@@H](C)[C@H]1CC[C@H]2[C@@H]3CC=C4C[C@@H](O)CC[C@]4(C)[C@H]3CC[C@]12C)C(C)C (stereo partly specified) [SARINGOSTEROL],0.25 µg/mL

# System: Vero
# Experiment: Cytotoxicity against african green monkey Vero cells by celltiter 96 aqueous nonradioactive assay
# Type: cell-based
# Conditions: Chlorocebus sabaeus
row,Structure (SMILES),IC50
1,C=CC(O)(CC[C@@H](C)[C@H]1CC[C@H]2[C@@H]3CC=C4C[C@@H](O)CC[C@]4(C)[C@H]3CC[C@]12C)C(C)C (stereo partly specified) [SARINGOSTEROL],> 128 µg/mL
